US4431652A, “4-Hydroxy-5-substituted-3(2H)-isothiazolone-1,1-dioxide derivatives useful in treating urinary tract calcium oxalate lithiasis” (Merck & Co., Inc., priority 1980, dated 1984)

Molecular target: T1, pig liver glycolate oxidase (Sus scrofa, UniProt I3LVF1)
T1 construct: The enzyme was pig liver glycolate oxidase; from tissue; host or cells: pig liver
T1 sequence (I3LVF1 1-370): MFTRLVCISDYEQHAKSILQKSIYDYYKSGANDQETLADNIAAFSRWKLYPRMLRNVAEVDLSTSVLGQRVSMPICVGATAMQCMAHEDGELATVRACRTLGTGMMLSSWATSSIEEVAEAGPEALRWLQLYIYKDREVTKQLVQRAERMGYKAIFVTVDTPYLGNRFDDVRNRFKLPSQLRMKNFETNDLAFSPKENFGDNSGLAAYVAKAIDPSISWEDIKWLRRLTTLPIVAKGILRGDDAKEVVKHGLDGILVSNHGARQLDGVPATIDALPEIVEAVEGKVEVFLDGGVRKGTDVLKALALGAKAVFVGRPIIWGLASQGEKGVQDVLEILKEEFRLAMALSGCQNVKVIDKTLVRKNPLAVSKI
Assay: Glycolate oxidase enzyme inhibition (rate of reduction of sodium 2,6-dichlorophenol-indophenol by sodium glycolate, 600 nm)
Format: biochemical
Conditions: 25° C., 0.10 M phosphate buffer, pH 7.0, 3 mM EDTA, 2×10^-4 M sodium glycolate, 5×10^-5 M sodium 2,6-dichlorophenol-indophenol, initial rates 1 to 3 min
Procedure: The usefulness of the compounds of the present invention in treating urinary tract, especially renal, calcium oxalate lithiasis, was shown by the ability of these compounds to inhibit the glycolate oxidase enzyme. […] The activity of the enzyme, in turn, was measured by following the rate of reduction of sodium 2,6-dichlorophenol-indophenol by sodium glycolate in the presence of the enzyme. The enzyme was pig liver glycolate oxidase. The reaction was following spectrophotometrically at 600 nm. The assay was conducted at 25° C. in a 0.10 M phosphate buffer, pH 7.0, contining 3 mM EDTA. Initial substrate concentrations were 5×10^-5 M of sodium 2,6-dichlorophenol-indophenol and 2×10^-4 M of sodium glycolate. Reactions were initiated by the addition of enzyme. Initial rates during the period from 1 to 3 min. after the addition of enzyme were recorded on a Beckman Acta M-VI spectrophotometer. One control was run simultaneously with three test reactions, and all initial rates were adjusted to a common control rate. For further details of this procedure, see Randall et al., J. Med. Chem., 22, 6, 612 (1979).

Row | Structure (SMILES) | IC50 [nM]
1 | O=C1NS(=O)(=O)C(c2csc(-c3ccc(Cl)c(Cl)c3)n2)=C1O [5-[2-(3,4-Dichlorophenyl)thiazol-4-yl]-4-hydroxy-3(2H)-isothiazolone-1,1-dioxide] | 110
2 | O=C1NS(=O)(=O)C(c2nc(-c3ccc(Cl)c(Cl)c3)cs2)=C1O [5-[4-(3,4-Dichlorophenyl)thiazol-2-yl]-4-hydroxy-3(2H)-isothiazolone-1,1-dioxide] | 600
